35 molecules from patent publication US9434743B2, “Indazole derivatives” (TAKEDA PHARMACEUTICAL COMPANY LIMITED, priority 2012, dated 2016) can be followed below.

The target of assay [1] is T1, human MetAP2 enzyme (Homo sapiens, UniProt P50579). Nature of the assay: MetAP2 enzyme assay, enzyme complexed with manganese ions. Particulars: MetAP2 Mn pIC50, MetAP2 enzyme complexed with manganese ions; Met-AMC substrate at Km.
Assay [2] addresses T1, human MetAP2 enzyme. In words: MetAP2 enzyme assay, enzyme complexed with cobalt ions. To be noted: MetAP2 Co pIC50, MetAP2 enzyme complexed with cobalt ions; Met-AMC substrate at Km.

T1 sequence (P50579 whole entry): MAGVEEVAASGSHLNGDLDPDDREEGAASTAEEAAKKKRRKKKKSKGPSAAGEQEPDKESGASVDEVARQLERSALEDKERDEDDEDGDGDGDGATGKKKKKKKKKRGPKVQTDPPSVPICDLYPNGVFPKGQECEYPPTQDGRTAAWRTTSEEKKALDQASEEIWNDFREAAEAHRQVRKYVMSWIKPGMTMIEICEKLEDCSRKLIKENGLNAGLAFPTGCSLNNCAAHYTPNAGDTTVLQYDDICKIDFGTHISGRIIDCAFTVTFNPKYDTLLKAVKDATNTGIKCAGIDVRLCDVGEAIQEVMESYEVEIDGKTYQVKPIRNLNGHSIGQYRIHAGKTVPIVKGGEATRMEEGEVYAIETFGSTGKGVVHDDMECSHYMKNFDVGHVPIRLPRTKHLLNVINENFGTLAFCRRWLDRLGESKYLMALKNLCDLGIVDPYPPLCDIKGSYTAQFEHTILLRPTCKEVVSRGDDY

As to `COc1ncc(-c2cc(C(F)(F)F)cc3[nH]ncc23)c(N)n1` [Example 256, 2-methoxy-5-(6-(trifluoromethyl)-1H-indazol-4-yl)pyrimidin-4-amine], the IC50 against human MetAP2 enzyme [1] was 10 nM; at human MetAP2 enzyme [2], 126 nM.

In the case of `Nc1ncc(-c2cc(C(F)(F)F)cc3[nH]ncc23)c2cccnc12` [Example 142, 5-(6-(trifluoromethyl)-1H-indazol-4-yl)-1,7-naphthyridin-8-amine], the IC50 is 7.94 nM against human MetAP2 enzyme [1] and 25.1 nM on human MetAP2 enzyme [2].

As to `N#Cc1cnc(N)c(-c2cc(C(F)(F)F)cc3[nH]ncc23)c1` [Example 212, 6-amino-5-(6-(trifluoromethyl)-1H-indazol-4-yl)nicotinonitrile], the values for the IC50 against human MetAP2 enzyme [1] and at human MetAP2 enzyme [2] were 10 nM and 200 nM, respectively.

Take `Cn1c(-c2cc(C(F)(F)F)cc3[nH]ncc23)nc2c1c(=O)[nH]c(=O)n2C` [Example 167, 3,7-dimethyl-8-(6-(trifluoromethyl)-1H-indazol-4-yl)-1H-purine-2,6(3H,7H)-dione]: the IC50 against human MetAP2 enzyme [1] is 3.98 nM; against human MetAP2 enzyme [2], 158 nM.

With `O=C1NCc2c1cccc2-c1cc(C(F)(F)F)cc2[nH]ncc12` [Example 141, 4-(6-(trifluoromethyl)-1H-indazol-4-yl)isoindolin-1-one], the IC50 on human MetAP2 enzyme [1] was 5.01 nM; against human MetAP2 enzyme [2], 12.6 nM.

Regarding `FC(F)(F)c1cc(-c2cnc3ccccn23)c2cn[nH]c2c1` [Example 149, 4-(imidazo[1,2-a]pyridin-3-yl)-6-(trifluoromethyl)-1H-indazole], the IC50 against human MetAP2 enzyme [1] is 63.1 nM; at human MetAP2 enzyme [2], 501 nM.

On to `CCCOc1ncccc1-c1cc(C(F)(F)F)cc2[nH]ncc12` [Example 134, 4-(2-propoxypyridin-3-yl)-6-(trifluoromethyl)-1H-indazole], for which the IC50 against human MetAP2 enzyme [1] was 25.1 nM; against human MetAP2 enzyme [2], 100 nM.

As for `CN1CCN(C(=O)c2cc(-c3cc(C(F)(F)F)cc4[nH]ncc34)cnc2N)CC1` [Example 282, (2-amino-5-(6-(trifluoromethyl)-1H-indazol-4-yl)pyridin-3-yl)(4-methylpiperazin-1-yl)methanone], the IC50 is 6.31 nM at human MetAP2 enzyme [1] and 50.1 nM at human MetAP2 enzyme [2].

In the case of `Cc1cn(C)c(-c2cc(C(F)(F)F)cc3[nH]ncc23)n1` [Example 163, 4-(1,4-dimethyl-1H-imidazol-2-yl)-6-(trifluoromethyl)-1H-indazole], the IC50 on human MetAP2 enzyme [1] is 12.6 nM; against human MetAP2 enzyme [2], 794 nM.

`CCOc1ncccc1-c1cc(C(F)(F)F)cc2[nH]ncc12` [Example 133, 4-(2-ethoxypyridin-3-yl)-6-(trifluoromethyl)-1H-indazole]: the values for the IC50 at human MetAP2 enzyme [1] and against human MetAP2 enzyme [2] were 10 nM and 63.1 nM, respectively.

On to `FC(F)(F)c1cc(-c2cnc(-n3ccnc3)nc2)c2cn[nH]c2c1` [Example 217, 4-(2-(1H-imidazol-1-yl)pyrimidin-5-yl)-6-(trifluoromethyl)-1H-indazole], for which the IC50 on human MetAP2 enzyme [1] is 10 nM; at human MetAP2 enzyme [2], 158 nM.

For the molecule `Fc1c[nH]c2ncc(-c3cc(C(F)(F)F)cc4[nH]ncc34)cc12` [Example 339, 4-(3-fluoro-1H-pyrrolo[2,3-b]pyridin-5-yl)-6-(trifluoromethyl)-1H-indazole], the figures for the IC50 on human MetAP2 enzyme [1] and against human MetAP2 enzyme [2] were 20 nM and 126 nM, respectively.

Turning to `Cc1nn(CC2(C)COC2)c(C)c1-c1cc(C(F)(F)F)cc2[nH]ncc12` [Example 380, 4-(3,5-dimethyl-1-((3-methyloxetan-3-yl)methyl)-1H-pyrazol-4-yl)-6-(trifluoromethyl)-1H-indazole], the IC50 against human MetAP2 enzyme [1] was 25.1 nM; at human MetAP2 enzyme [2], 398 nM.

For the molecule `CN1CCN(C(=O)c2cc(-c3cc(C(F)(F)F)cc4[nH]ncc34)c(=O)n(C)c2)CC1` [Example 375, 1-methyl-5-(4-methylpiperazine-1-carbonyl)-3-(6-(trifluoromethyl)-1H-indazol-4-yl)pyridin-2(1H)-one], the IC50 is 10 nM against human MetAP2 enzyme [1] and 126 nM against human MetAP2 enzyme [2].

`Cc1nc2[nH]c(O)nc2cc1-c1cc(C(F)(F)F)cc2[nH]ncc12` [Example 382, 5-methyl-6-(6-(trifluoromethyl)-1H-indazol-4-yl)-3H-imidazo[4,5-b]pyridin-2-ol]: the IC50 was 6.31 nM against human MetAP2 enzyme [1] and 12.6 nM against human MetAP2 enzyme [2].

With `Cc1nc(N)nc(C)c1-c1cc(C(F)(F)F)cc2[nH]ncc12` [Example 190, 4,6-dimethyl-5-(6-(trifluoromethyl)-1H-indazol-4-yl)pyrimidin-2-amine], the IC50 against human MetAP2 enzyme [1] is 39.8 nM; on human MetAP2 enzyme [2], 200 nM.

Regarding `Cn1cc(-c2cc(C(F)(F)F)cc3[nH]ncc23)c(=O)n(CC(N)=O)c1=O` [Example 300, 2-(3-methyl-2,6-dioxo-5-(6-(trifluoromethyl)-1H-indazol-4-yl)-2,3-dihydropyrimidin-1(6H)-yl)acetamide], the IC50 at human MetAP2 enzyme [1] was 12.6 nM; against human MetAP2 enzyme [2], 398 nM.

For `Cn1cc(-c2cc(C(F)(F)F)cc3[nH]ncc23)c(=O)n(C)c1=O` [Example 82, 1,3-dimethyl-5-(6-(trifluoromethyl)-1H-indazol-4-yl)pyrimidine-2,4(1H,3H)-dione], the IC50 against human MetAP2 enzyme [1] was 10 nM; against human MetAP2 enzyme [2], 501 nM.

Consider `CN1CCOc2cc(-c3cc(C(F)(F)F)cc4[nH]ncc34)cnc21` [Example 122, 4-methyl-7-(6-(trifluoromethyl)-1H-indazol-4-yl)-3,4-dihydro-2H-pyrido[3,2-b][1,4]oxazine], for which the IC50 is 12.6 nM on human MetAP2 enzyme [1] and 39.8 nM at human MetAP2 enzyme [2].

As to `NC(=O)c1cc(-c2cc(C(F)(F)F)cc3[nH]ncc23)cnc1N` [Example 233, 2-amino-5-(6-(trifluoromethyl)-1H-indazol-4-yl)nicotinamide], the half-inhibitory concentration (IC50) is 7.94 nM against human MetAP2 enzyme [1] and 100 nM at human MetAP2 enzyme [2].

For the molecule `FC(F)(F)c1cc(-c2cccnc2OC2CCCC2)c2cn[nH]c2c1` [Example 98, 4-(2-(cyclopentyloxy)pyridin-3-yl)-6-(trifluoromethyl)-1H-indazole], the IC50 at human MetAP2 enzyme [1] is 15.8 nM; against human MetAP2 enzyme [2], 39.8 nM.

In the case of `Cc1nc(NS(=O)(=O)c2cnn(C)c2)ccc1-c1cc(C(F)(F)F)cc2[nH]ncc12` [Example 259, 1-methyl-N-(6-methyl-5-(6-(trifluoromethyl)-1H-indazol-4-yl)pyridin-2-yl)-1H-pyrazole-4-sulfonamide], the IC50 on human MetAP2 enzyme [1] was 7.94 nM; at human MetAP2 enzyme [2] it was 31.6 nM.

In the case of `Cc1c[nH]c2ncc(-c3cc(C(F)(F)F)cc4[nH]ncc34)cc12` [Example 340, 4-(3-methyl-1H-pyrrolo[2,3-b]pyridin-5-yl)-6-(trifluoromethyl)-1H-indazole], the IC50 is 15.8 nM on human MetAP2 enzyme [1] and 100 nM at human MetAP2 enzyme [2].

Turning to `COc1cccc(-c2cc(C(F)(F)F)cc3[nH]ncc23)n1` [Example 91, 4-(6-methoxypyridin-2-yl)-6-(trifluoromethyl)-1H-indazole], the IC50 against human MetAP2 enzyme [1] was 6.31 nM; against human MetAP2 enzyme [2], 200 nM.

`FC(F)(F)c1cc(-c2ccncc2Cl)c2cn[nH]c2c1` [Example 49, 4-(3-chloropyridin-4-yl)-6-(trifluoromethyl)-1H-indazole]: the IC50 is 15.8 nM against human MetAP2 enzyme [1] and 200 nM against human MetAP2 enzyme [2].

Consider `O=C(c1c[nH]c(=O)c(-c2cc(C(F)(F)F)cc3[nH]ncc23)c1)N1CCOCC1` [Example 298, 5-(morpholine-4-carbonyl)-3-(6-(trifluoromethyl)-1H-indazol-4-yl)pyridin-2(1H)-one], for which the IC50 is 10 nM at human MetAP2 enzyme [1] and 398 nM against human MetAP2 enzyme [2].

In the case of `Cn1ncc(-c2cc(C(F)(F)F)cc3[nH]ncc23)c1CO` [Example 250, (1-methyl-4-(6-(trifluoromethyl)-1H-indazol-4-yl)-1H-pyrazol-5-yl)methanol], the IC50 is 6.31 nM against human MetAP2 enzyme [1] and 79.4 nM against human MetAP2 enzyme [2].

As to `O=S(=O)(NCCO)c1ccc(-c2cc(C(F)(F)F)cc3[nH]ncc23)cn1` [Example 378, N-(2-hydroxyethyl)-5-(6-(trifluoromethyl)-1H-indazol-4-yl)pyridine-2-sulfonamide], the results for the IC50 against human MetAP2 enzyme [1] and on human MetAP2 enzyme [2] were 5.01 nM and 63.1 nM, respectively.

In the case of `O=C(c1ccc(-c2cc(C(F)(F)F)cc3[nH]ncc23)cn1)N1CCOCC1` [Example 262, morpholino(5-(6-(trifluoromethyl)-1H-indazol-4-yl)pyridin-2-yl)methanone], the values for the IC50 on human MetAP2 enzyme [1] and at human MetAP2 enzyme [2] were 10 nM and 200 nM, respectively.

With `CCNC(=O)Cn1c(=O)c(-c2cc(C(F)(F)F)cc3[nH]ncc23)cn(C)c1=O` [Example 302, N-ethyl-2-(3-methyl-2,6-dioxo-5-(6-(trifluoromethyl)-1H-indazol-4-yl)-2,3-dihydropyrimidin-1(6H)-yl)acetamide], the IC50 at human MetAP2 enzyme [1] is 6.31 nM; against human MetAP2 enzyme [2], 501 nM.

Consider `Cn1ncc2cc(-c3cc(C(F)(F)F)cc4[nH]ncc34)ccc21` [Example 36, 1′-methyl-6-(trifluoromethyl)-1H,1′H-4,5′-biindazole], for which the figures for the 50% inhibitory concentration (IC50) against human MetAP2 enzyme [1] and against human MetAP2 enzyme [2] were 6.31 nM and 25.1 nM, respectively.

On to `NS(=O)(=O)c1ccc(-c2cc(C(F)(F)F)cc3[nH]ncc23)cc1Cl` [Example 343, 2-chloro-4-(6-(trifluoromethyl)-1H-indazol-4-yl)benzenesulfonamide], for which the IC50 at human MetAP2 enzyme [1] is 6.31 nM; on human MetAP2 enzyme [2] it was 100 nM.

Consider `FC(F)(F)c1cc(-c2ncn3ccccc23)c2cn[nH]c2c1` [Example 154, 4-(imidazo[1,5-a]pyridin-1-yl)-6-(trifluoromethyl)-1H-indazole], for which the IC50 was 15.8 nM against human MetAP2 enzyme [1] and 100 nM against human MetAP2 enzyme [2].

Consider `FC(F)(F)COc1ncccc1-c1cc(C(F)(F)F)cc2[nH]ncc12` [Example 100, 4-(2-(2,2,2-trifluoroethoxy)pyridin-3-yl)-6-(trifluoromethyl)-1H-indazole], for which the IC50 against human MetAP2 enzyme [1] is 15.8 nM; on human MetAP2 enzyme [2], 200 nM.

In the case of `COc1ncc(-c2cc(C(F)(F)F)cc3[nH]ncc23)cc1C(=O)N1CCN(C)CC1` [Example 288, (2-methoxy-5-(6-(trifluoromethyl)-1H-indazol-4-yl)pyridin-3-yl)(4-methylpiperazin-1-yl)methanone], the values for the IC50 against human MetAP2 enzyme [1] and against human MetAP2 enzyme [2] were 5.01 nM and 31.6 nM, respectively.

The IC50 is the concentration that inhibits the measured activity by half.
